# Measurements taken from PubChem BioAssay AID1963870 (Molecular Pharmacology Branch, DTP, NCI, 2024).
# Values joined by “and” are separate entries in the source; they are usually repeats but may differ in a detail not shown here. Equal entries are not always repeated.
# Test system: 292921-168-R-J2-PDC KRAS tumor spheroid viability
# Test: Anticancer human tumor 292921-168-R-J2-PDC patient-derived pancreatic carcinoma cell line growth inhibition [KRAS2]
# Conditions: spheroids with HUVEC and MSC; for viability, T/C: stronger effect = lower value
# Summary of the method: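 KRAS-mutant tumor cells were grown as spheroids with HUVEC endothelial cells and human MSCs as stroma. Targeted agents were tested alone and with KRAS pathway inhibitors. Doses started at or near clinical Cmax, or 10 microM, descending half-log.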
# [1] = curve of first compound, second compound 0.1 µM
# [2] = curve of first compound, second compound 0.316 µM
# [3] = curve of first compound, second compound 1 µM
# [4] = curve of first compound, second compound 3.16 µM
# [5] = curve of first compound, second compound 10 µM
# [6] = second compound 0.1 µM, first compound 0.0316 µM
# [7] = second compound 0.1 µM, first compound 0.1 µM
# [8] = second compound 0.1 µM, first compound 0.316 µM
# [9] = second compound 0.1 µM, first compound 1 µM
# [10] = second compound 0.316 µM, first compound 0.0316 µM
# [11] = second compound 0.316 µM, first compound 0.1 µM
# [12] = second compound 0.316 µM, first compound 0.316 µM
# [13] = second compound 0.316 µM, first compound 1 µM
# [14] = second compound 1 µM, first compound 0.0316 µM
# [15] = second compound 1 µM, first compound 0.1 µM
# [16] = second compound 1 µM, first compound 0.316 µM
# [17] = second compound 1 µM, first compound 1 µM
# [18] = second compound 3.16 µM, first compound 0.0316 µM
# [19] = second compound 3.16 µM, first compound 0.1 µM
# [20] = second compound 3.16 µM, first compound 0.316 µM
# [21] = second compound 3.16 µM, first compound 1 µM
# [22] = second compound 10 µM, first compound 0.0316 µM
# [23] = second compound 10 µM, first compound 0.1 µM
# [24] = second compound 10 µM, first compound 0.316 µM
# [25] = second compound 10 µM, first compound 1 µM
# [26] = second compound 0.1 µM, first compound 3.16 µM
# [27] = second compound 0.1 µM, first compound 10 µM
# [28] = second compound 0.316 µM, first compound 3.16 µM
# [29] = second compound 0.316 µM, first compound 10 µM
# [30] = second compound 1 µM, first compound 3.16 µM
# [31] = second compound 1 µM, first compound 10 µM
# [32] = second compound 3.16 µM, first compound 3.16 µM
# [33] = second compound 3.16 µM, first compound 10 µM
# [34] = second compound 10 µM, first compound 3.16 µM
# [35] = second compound 10 µM, first compound 10 µM
# 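Also: drug exposure lasted seven days after spheroids formed for three days.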
# 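For viability, T/C in this document: percent of DMSO vehicle control viability which is 100%.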
smiles,measurement,setting,value
CCN1CCN(Cc2ccc(Nc3ncc(F)c(-c4cc(F)c5nc(C)n(C(C)C)c5c4)n3)nc2)CC1 + CNCc1ccccc1-c1csc(C(C)Nc2nc(C)nc3cc(OC)c(OC)cc23)c1,IC50,[1],19.8 nM
same,IC50,[2],16.1 nM
same,IC50,[3],4.44 nM
same,IC50,[4],< 3.16 nM
same,IC50,[5],< 3.16 nM
same,"viability, T/C","second compound 0.1 µM, first compound 0.00316 µM",76.5%
same,"viability, T/C","second compound 0.1 µM, first compound 0.01 µM",60.9%
same,"viability, T/C",[6],42%
same,"viability, T/C",[7],30.9%
same,"viability, T/C",[8],24.8%
same,"viability, T/C",[9],19.1%
same,"viability, T/C","second compound 0.316 µM, first compound 0.00316 µM",73.2%
same,"viability, T/C","second compound 0.316 µM, first compound 0.01 µM",57.4%
same,"viability, T/C",[10],37.1%
same,"viability, T/C",[11],31.8%
same,"viability, T/C",[12],23.6%
same,"viability, T/C",[13],12.3%
same,"viability, T/C","second compound 1 µM, first compound 0.00316 µM",54.3%
same,"viability, T/C","second compound 1 µM, first compound 0.01 µM",42.6%
same,"viability, T/C",[14],28.6%
same,"viability, T/C",[15],22.3%
same,"viability, T/C",[16],21.3%
same,"viability, T/C",[17],0.5%
same,"viability, T/C","second compound 3.16 µM, first compound 0.00316 µM",0.12%
same,"viability, T/C","second compound 3.16 µM, first compound 0.01 µM",0.07%
same,"viability, T/C",[18],0.04%
same,"viability, T/C",[19],0.05%
same,"viability, T/C",[20],0.1%
same,"viability, T/C",[21],0.1%
same,"viability, T/C","second compound 10 µM, first compound 0.00316 µM",0.11%
same,"viability, T/C","second compound 10 µM, first compound 0.01 µM",0.11%
same,"viability, T/C",[22],0.08%
same,"viability, T/C",[23],0.08%
same,"viability, T/C",[24],0.08%
same,"viability, T/C",[25],0.13%
CC(C)NCC(C(=O)N1CCN(c2ncnc3c2C(C)CC3O)CC1)c1ccc(Cl)cc1 (configuration not stated) + COc1cc2nc(C)nc(NC(C)c3cc(N)cc(C(F)(F)F)c3)c2cc1OC1CCOC1,IC50,[1],8850 nM
same,IC50,[2],8100 nM
same,IC50,[3],5010 nM
same,IC50,[4],1250 nM
same,IC50,[5],< 31.6 nM
same,"viability, T/C",[6],87.5%
same,"viability, T/C",[7],84.8%
same,"viability, T/C",[8],78.8%
same,"viability, T/C",[9],77.8%
same,"viability, T/C",[26],77.4%
same,"viability, T/C",[27],46.3%
same,"viability, T/C",[10],82.7%
same,"viability, T/C",[11],82%
same,"viability, T/C",[12],80.5%
same,"viability, T/C",[13],75.3%
same,"viability, T/C",[28],74.4%
same,"viability, T/C",[29],44.7%
same,"viability, T/C",[14],83.2%
same,"viability, T/C",[15],71.1%
same,"viability, T/C",[16],63.8%
same,"viability, T/C",[17],63.2%
same,"viability, T/C",[30],60.9%
same,"viability, T/C",[31],40.2%
same,"viability, T/C",[18],58.1%
same,"viability, T/C",[19],51.1%
same,"viability, T/C",[20],50.2%
same,"viability, T/C",[21],50.4%
same,"viability, T/C",[32],46.9%
same,"viability, T/C",[33],30.6%
same,"viability, T/C",[22],20.3%
same,"viability, T/C",[23],19.7%
same,"viability, T/C",[24],18.6%
same,"viability, T/C",[25],18%
same,"viability, T/C",[34],15.4%
same,"viability, T/C",[35],9.75%
CC1OCC2(CCN(c3cnc(Sc4ccnc(N)c4Cl)c(N)n3)CC2)C1N (configuration not stated) + CNCc1ccccc1-c1csc(C(C)Nc2nc(C)nc3cc(OC)c(OC)cc23)c1,IC50,[1],296 nM
same,IC50,[2],203 nM
same,IC50,[3],43.5 nM
same,IC50,[4],< 31.6 nM
same,IC50,[5],< 31.6 nM
same,"viability, T/C",[6],77%
same,"viability, T/C",[7],61.6%
same,"viability, T/C",[8],50%
same,"viability, T/C",[9],37.5%
same,"viability, T/C",[26],34.6%
same,"viability, T/C",[27],26.7%
same,"viability, T/C",[10],77.4%
same,"viability, T/C",[11],56.2%
same,"viability, T/C",[12],44.7%
same,"viability, T/C",[13],37.4%
same,"viability, T/C",[28],31.8%
same,"viability, T/C",[29],24.8%
same,"viability, T/C",[14],52.5%
same,"viability, T/C",[15],43.2%
same,"viability, T/C",[16],37.8%
same,"viability, T/C",[17],29.3%
same,"viability, T/C",[30],26%
same,"viability, T/C",[31],22.2%
same,"viability, T/C",[18],0.1%
same,"viability, T/C",[19],0.09%
same,"viability, T/C",[20],0.07%
same,"viability, T/C",[21],0.06%
same,"viability, T/C",[32],0.05%
same,"viability, T/C",[33],0.33%
same,"viability, T/C",[22],0.09%
same,"viability, T/C",[23],0.19%
same,"viability, T/C",[24],0.08%
same,"viability, T/C",[25],0.09%
same,"viability, T/C",[34],0.09%
same,"viability, T/C",[35],0.15%
CCNC(=O)CC1N=C(c2ccc(Cl)cc2)c2cc(OC)ccc2-n2c(C)nnc21 (configuration not stated) + C=CC(=O)N1CCN(c2nc(OCC3CCCN3C)nc3c2CCN(c2cccc4cccc(C)c24)C3)CC1CC#N,IC50,"curve of first compound, second compound 0.0316 µM",> 10000 nM
same,IC50,[1],1230 nM
same,IC50,[2],644 nM
same,IC50,[3],< 31.6 nM
same,IC50,[4],< 31.6 nM
same,"viability, T/C","second compound 0.0316 µM, first compound 0.0316 µM",104%
same,"viability, T/C","second compound 0.0316 µM, first compound 0.1 µM",99.5%
same,"viability, T/C","second compound 0.0316 µM, first compound 0.316 µM",69.9%
same,"viability, T/C","second compound 0.0316 µM, first compound 1 µM",63.6%
same,"viability, T/C","second compound 0.0316 µM, first compound 3.16 µM",53.9%
same,"viability, T/C","second compound 0.0316 µM, first compound 10 µM",49.2%
same,"viability, T/C",[6],94%
same,"viability, T/C",[7],90.2%
same,"viability, T/C",[8],59.1%
same,"viability, T/C",[9],53.7%
same,"viability, T/C",[26],48%
same,"viability, T/C",[27],34.3%
same,"viability, T/C",[10],106%
same,"viability, T/C",[11],92.2%
same,"viability, T/C",[12],59.2%
same,"viability, T/C",[13],45.1%
same,"viability, T/C",[28],34.2%
same,"viability, T/C",[29],29.2%
same,"viability, T/C",[14],42.4%
same,"viability, T/C",[15],33%
same,"viability, T/C",[16],26.1%
same,"viability, T/C",[17],18.4%
same,"viability, T/C",[30],13.7%
same,"viability, T/C",[31],8.19%
same,"viability, T/C",[18],0.21%
same,"viability, T/C",[19],0.11%
same,"viability, T/C",[20],0.1%
same,"viability, T/C",[21],0.1%
same,"viability, T/C",[32],0.1%
same,"viability, T/C",[33],0.26%
O=C(c1cc(Cc2n[nH]c(=O)c3ccccc23)ccc1F)N1CCN(C(=O)C2CC2)CC1 + COc1cc2nc(C)nc(NC(C)c3cc(N)cc(C(F)(F)F)c3)c2cc1OC1CCOC1,IC50,[1],> 10000 nM
same,IC50,[2],9620 nM
same,IC50,[3],9770 nM
same,IC50,[4],6440 nM
same,IC50,[5],9860 nM
same,"viability, T/C",[6],111%
same,"viability, T/C",[7],119%
same,"viability, T/C",[8],108%
same,"viability, T/C",[9],113%
same,"viability, T/C",[26],99.8%
same,"viability, T/C",[27],52.1%
same,"viability, T/C",[10],111%
same,"viability, T/C",[11],105%
same,"viability, T/C",[12],98.2%
same,"viability, T/C",[13],102%
same,"viability, T/C",[28],92.1%
same,"viability, T/C",[29],48%
same,"viability, T/C",[14],130%
same,"viability, T/C",[15],116%
same,"viability, T/C",[16],118%
same,"viability, T/C",[17],119%
same,"viability, T/C",[30],88.7%
same,"viability, T/C",[31],49.2%
same,"viability, T/C",[18],86.7%
same,"viability, T/C",[19],82.5%
same,"viability, T/C",[20],76%
same,"viability, T/C",[21],75.7%
same,"viability, T/C",[32],63.2%
same,"viability, T/C",[33],41.6%
same,"viability, T/C",[22],83.8%
same,"viability, T/C",[23],84.3%
same,"viability, T/C",[24],77.9%
same,"viability, T/C",[25],73.5%
same,"viability, T/C",[34],85%
same,"viability, T/C",[35],49.8%
CCN1CCN(Cc2ccc(Nc3ncc(F)c(-c4cc(F)c5nc(C)n(C(C)C)c5c4)n3)nc2)CC1,"viability, T/C",compound 0.00316 µM,88.5% and 85.8% and 83.2%
same,"viability, T/C",compound 0.01 µM,72.1% and 73% and 63.1%
same,"viability, T/C",compound 0.0316 µM,57.3% and 49.2% and 53%
same,"viability, T/C",compound 0.1 µM,36.8% and 43.1% and 36.2%
same,"viability, T/C",compound 0.316 µM,28.3% and 34.9% and 27.1%
same,"viability, T/C",compound 1 µM,17.8% and 23.3% and 20.6%
same,IC50,curve of compound,46.4 nM and 47.4 nM and 32.1 nM
